Laboratory results: patent publication US8299048B2, “Hexahydrocyclopentyl[f]indazole sulfonamides and derivatives thereof as selective glucocorticoid receptor modulators” (Merck Sharp & Dohme Corp., priority 2008, dated 2012)

biological target: T1, glucocorticoid receptor (Homo sapiens, UniProt P04150); experiment: Ligand binding assay (GR BIND)
T1 construct: endogenous in cells
T1 sequence (P04150 1-777): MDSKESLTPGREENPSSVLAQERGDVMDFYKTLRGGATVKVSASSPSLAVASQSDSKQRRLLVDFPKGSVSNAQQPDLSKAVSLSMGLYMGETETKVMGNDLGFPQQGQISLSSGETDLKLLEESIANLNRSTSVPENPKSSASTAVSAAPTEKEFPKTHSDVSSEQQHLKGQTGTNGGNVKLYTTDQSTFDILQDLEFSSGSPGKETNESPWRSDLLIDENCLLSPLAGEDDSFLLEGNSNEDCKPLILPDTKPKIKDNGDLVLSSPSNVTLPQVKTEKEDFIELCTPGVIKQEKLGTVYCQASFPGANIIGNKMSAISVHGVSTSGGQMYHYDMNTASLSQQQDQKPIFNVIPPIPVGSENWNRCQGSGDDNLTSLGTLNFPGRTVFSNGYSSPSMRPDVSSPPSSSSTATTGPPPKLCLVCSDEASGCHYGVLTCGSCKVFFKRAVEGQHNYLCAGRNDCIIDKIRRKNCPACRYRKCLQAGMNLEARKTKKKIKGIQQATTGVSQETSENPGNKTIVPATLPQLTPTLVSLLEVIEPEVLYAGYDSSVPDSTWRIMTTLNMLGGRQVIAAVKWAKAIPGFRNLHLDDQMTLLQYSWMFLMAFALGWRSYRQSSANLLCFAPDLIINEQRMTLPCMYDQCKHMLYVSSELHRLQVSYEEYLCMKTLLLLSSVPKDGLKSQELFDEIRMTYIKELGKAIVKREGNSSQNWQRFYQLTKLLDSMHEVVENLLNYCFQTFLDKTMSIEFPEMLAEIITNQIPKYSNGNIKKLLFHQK
Method: • Materials: • Binding Buffer: TEGM (10 mM Tris-HCl, 1 mM EDTA, 10% glycerol, 1 mM beta-mecaptoethanol, 10 mM Sodium Molybdate, pH 7.2) • 50% HAP Slurry: Calbiochem Hydroxylapatite, Fast Flow, in 10 mM Tris, pH 8.0 and 1 mM EDTA. • Wash Buffer: 40 mM Tris, pH7.5, 100 mM KCl, 1 mM EDTA and 1 mM EGTA.
Phenol red-free Trypsin-EDTA is diluted in the same PBS1:10. The cell layers are rinsed with 1× Trypsin, extra Trypsin is poured out, and the cell layers are incubated at 37° C. for ˜2 min. The flask is tapped and checked for signs of cell detachment. Once the cells begin to slide off the flask, the complete media is added. The cells are counted at this point, then diluted to the appropriate concentration and split into flasks or dishes for further culturing (Usually 1:3 to 1:6 dilution).
When the cells are 70 to 85% confluent, they are detached as described above, and collected by centrifuging at 1000 g for 10 minutes at 4° C. The cell pellet is washed twice with TEGM (10 mM Tris-HCl, 1 mM EDTA, 10% glycerol, 1 mM beta-mercaptoethanol, 10 mM Sodium Molybdate, pH 7.2). After the final wash, the cells are resuspended in TEGM at a concentration of 10^7 cells/mL. The cell suspension is snap frozen in liquid nitrogen or ethanol/dry ice bath and transferred to −80° C. freezer on dry ice. Before setting up the binding assay, the frozen samples are left on ice-water to just thaw (˜1 hr). Then the samples are centrifuged at 12,500 g to 20,000 g for 30 min at 4° C. The supernatant is used to set-up assay right away. If using 50 μL of supernatant, the test compound can be prepared in 50 μL of the TEGM buffer.
1×TEGM buffer is prepared, and the isotope-containing assay mixture is prepared in the following order: EtOH (2% final concentration in reaction), 3H-DEX (Amersham Biosciences) and 1×TEGM. [e.g. For 100 samples, 200 μL (100×2) of EtOH+4.25 μL of 1:10 ^3H—Dex stock+2300 μL (100×23) 1×TEGM]. The compound is serially diluted, e.g., if starting final conc. is 1 μM, and the compound is in 25 μL of solution, for duplicate samples, 75 μL of 4×1 μM solution is made and 3 μL of 100 μM is added to 72 μL of buffer, and 1:5 serial dilution.
25 μL of ^3H-DEX (6 nM) trace and 25 μL compound solution are first mixed together, followed by addition of 50 μL receptor solution. The reaction is gently mixed, spun briefly at about 200 rpm and incubated at 4° C. overnight. 100 μL of 50% HAP slurry is prepared and added to the incubated reaction which is then vortexed and incubated on ice for 5 to 10 minutes. The reaction mixture is vortexed twice more to resuspend HAP while incubating reaction. The samples in 96-well format are then washed in wash buffer using The FilterMate™ Universal Harvester plate washer (Packard). The washing process transfers HAP pellet containing ligand-bound expressed receptor to Unifilter-96 GF/B filter plate (Packard). The HAP pellet on the filter plate is incubated with 50 μL of MICROSCINT (Packard) scintillint for 30 minutes before being counted on the TopCount microscintillation counter (Packard). […] are calculated using DEX as a reference.

Row | Compound | Ki
1 | CC(C1CCC2=Cc3c(cnn3-c3ccc(F)cc3)C[C@@]21C)N(CC1CC1)S(=O)(=O)CC(F)(F)F (stereo partly drawn) [Example 109, N-(cyclopropylmethyl)-2,2,2-trifluoro-N-{1-[(4αR)-1-(4-fluorophenyl)-4α-methyl-1,4,4α,5,6,7-hexahydrocyclopenta[f]indazol-5-yl]ethyl}ethanesulfonamide] | 2.1 nM
2 | C[C@]12Cc3cnn(-c4ccc(F)cc4)c3C=C1CC[C@@H]2CN(CC1CCCO1)S(=O)(=O)Cc1cccc(C(F)(F)F)c1 (stereo partly drawn) [Example 110, N-{[(4αR,5S)-1-(4-fluorophenyl)-4α-methyl-1,4,4α,5,6,7-hexahydrocyclopenta[f]indazol-5-yl]methyl}-N-(tetrahydrofuran-2-ylmethyl)-1-[3-(trifluoromethyl)phenyl]methanesulfonamide] | 1.4 nM
3 | C[C@H](O)CN(C[C@H]1CCC2=Cc3c(cnn3-c3ccc(F)cc3)C[C@@]21C)S(=O)(=O)c1ccc(F)c(Cl)c1 [Example 112, 3-chloro-4-fluoro-N-{[(4αR,5S)-1-(4-fluorophenyl)-4α-methyl-1,4,4α,5,6,7-hexahydrocyclopenta[f]indazol-5-yl]methyl}-N-[(2S)-2-hydroxypropyl]benzenesulfonamide] | 1.7 nM
4 | C[C@@H](O)CN(C[C@H]1CCC2=Cc3c(cnn3-c3ccc(F)cc3)C[C@@]21C)S(=O)(=O)c1ccc(F)c(Cl)c1 [Example 115, 3-chloro-4-fluoro-N-{[(4αR,5S)-1-(4-fluorophenyl)-4α-methyl-1,4,4α,5,6,7-hexahydrocyclopenta[f]indazol-5-yl]methyl}-N-[(2R)-2-hydroxypropyl]benzenesulfonamide] | 2.9 nM
5 | C[C@]12Cc3cnn(-c4ccc(F)cc4)c3C=C1CC[C@@H]2CN(CCc1ccccc1O)S(=O)(=O)c1ccccc1F [Example 116, 2-fluoro-N-{[(4αR,5S)-1-(4-fluorophenyl)-4α-methyl-1,4,4α,5,6,7-hexahydrocyclopenta[f]indazol-5-yl]methyl}-N-[2-(2-hydroxyphenyl)ethyl]benzenesulfonamide] | 1.4 nM

Results, then the compound that gave them:

Row | Ki | Compound
6 | 1.8 nM | C[C@]12Cc3cnn(-c4ccc(F)cc4)c3C=C1CC[C@@H]2CN(CCc1ccccc1F)S(=O)(=O)Cc1ccccc1Cl [Example 107, 1-(2-chlorophenyl)-N-[2-(2-fluorophenyl)ethyl]-N-{[(4αR,5S)-1-(4-fluorophenyl)-4α-methyl-1,4,4α,5,6,7-hexahydrocyclopenta[f]indazol-5-yl]methyl}methanesulfonamide]
7 | 2.3 nM | C[C@]12Cc3cnn(-c4ccc(F)cc4)c3C=C1CC[C@@H]2CN(CCc1ccccc1F)S(=O)(=O)Cc1ccccc1C(F)(F)F [Example 108, N-[2-(2-fluorophenyl)ethyl]-N-{[(4αR,5S)-1-(4-fluorophenyl)-4α-methyl-1,4,4α,5,6,7-hexahydrocyclopenta[f]indazol-5-yl]methyl}-1-[2-(trifluoromethyl)phenyl]methanesulfonamide]
8 | 1.8 nM | C[C@]12Cc3cnn(-c4ccc(F)cc4)c3C=C1CC[C@@H]2CN(CCc1ccccc1F)S(=O)(=O)Cc1ccc(Cl)c(Cl)c1 [Example 111, 1-(3,4-dichlorophenyl)-N-[2-(2-fluorophenyl)ethyl]-N-{[(4αR,5S)-1-(4-fluorophenyl)-4α-methyl-1,4,4α,5,6,7-hexahydrocyclopenta[f]indazol-5-yl]methyl}methanesulfonamide]
9 | 2.2 nM | C[C@H](O)CN(C[C@H]1CCC2=Cc3c(cnn3-c3ccc(F)cc3)C[C@@]21C)S(=O)(=O)CC(F)(F)F [Example 113]
10 | 0.8 nM | C[C@@H](CN(C[C@H]1CCC2=Cc3c(cnn3-c3ccc(F)cc3)C[C@@]21C)S(=O)(=O)CC(F)(F)F)OS(=O)(=O)CC(F)(F)F [Example 114, (1S)-2-{{[(4αR,5S)-1-(4-fluorophenyl)-4α-methyl-1,4,4α,5,6,7-hexahydrocyclopenta[f]indazol-5-yl]methyl}[(2,2,2-trifluoroethyl)sulfonyl]amino}-1-methylethyl 2,2,2-trifluoroethanesulfonate]
